Test results from patent US20170196175A1, “COMPOSITIONS FOR THE DELIVERY OF AGROCHEMICALS TO THE ROOTS OF A PLANT” (ADAMA MAKHTESHIM LTD., priority 2014, published 2017).

What was measured:
[1] = Example 12; cited from earlier work
[2] = Azoxystrobin content in pepper leaves (Example 12); assay type: in vivo
Method: Planting/harvesting dates: (47 days). Following harvest, unit samples from all treatments were excavated gently and were quantified for roots penetration and total root length. A core from the middle of each sample was cut and analyzed for root content. Root count in both vertical and horizontal axes and total volume were used estimating the root total length within a single unit. Total leaves biomass of each plant was analyzed to Azoxystrobin content in qualified laboratory (Bactochem, Israel).
Azoxystrobin application through the soil was studied as part of its registration process. The concentration in pepper leaves was measured over time from application. Similar Azoxystrobin concentrations in leaves were found in both commercial and current trial (tenth of ppm). […] This significant difference may inform the potential of the unit for protecting the plant for longer periods compared to current application practice.

[3] = soil application studied as part of registration process, 28 DAP; cited from earlier work
Solanum Nigrum = assay: Weed development and mortality (Example 11); assay type: in vivo; conditions: for Weed control, unit versus spray practice: damage of weed buds from 13 days to end of trial
Source text: Weeds: 30 seeds of Solanum Nigrum per pot.
Analysis of weeds parameters: Fresh biomass, size and total area covered by weeds per pot.

[4] = Diffusion of Atrazine and Mesotrione from units submerged in free water; assay type: physicochemical; conditions: over 5 days
Method: A unit (each from the table above) was placed within a 500 cc vial. 250 cc of DI water were added. The vial was cover with punched Parafilm and stored at room temperature. After 24 hours, the free water, which didn't absorbed by the polymer, were drained and stored in a cold room. DI water at the same volume was refilled into the vial. Repeated this stage after 72 and 120 hours.

maize = assay: Crop selectivity (Example 11); assay type: in vivo
Source text: Soil: 10 liter pots (surface area of 0.045 m^2) filled with Rehovot Sand (High sand fraction, low OM, low EC, low CEC, and High pH).
Crops: 6 maize plants per pot following herbicide application (high demand to fertilizers with selectivity).
Analysis of crop development parameters: Height and fresh biomass.

CO/C=C(/C(=O)OC)c1ccccc1Oc1cc(Oc2ccccc2C#N)ncn1 [Azoxystrobin]
DT50 [1]: 100 to 150 days
Azoxystrobin concentration in unit leaves ([2]; 47 DAP): effective concentrations were found
Difference in Azoxystrobin concentration in leaves between fully fertilized and no fertilizer ([2]; DAP 47): 5 fold
Azoxystrobin concentration in leaves ([2]; pepper, unit and commercial trial): tenth of ppm
Azoxystrobin residue in commercial leaves [3]: no residue were found

CCNc1nc(Cl)nc(NC(C)C)n1 [Atrazine]
Weed control, unit versus spray practice (Solanum Nigrum): no difference between unit and spray practices
Dose released from the new units to the surrounding free water [4]: up to 10%

CS(=O)(=O)c1ccc(C(=O)C2C(=O)CCCC2=O)c([N+](=O)[O-])c1 [Mesotrione]
Weed control, unit versus spray practice (Solanum Nigrum): significant advantages of unit over spray
Weed control, half application rate in unit versus full spray rate (Solanum Nigrum; in vivo): more effective than full spray rate
Crop selectivity (crop height, color, final fresh biomass) (maize; double and fourfold doses): yellowish and slight shorter (fourfold only), yet no difference was found in fresh biomass
Crop selectivity (crop height, color, final fresh biomass) (maize; standard dose): selective
Dose released from the new units to the surrounding free water [4]: up to 25%
